Results published in patent US20250180508A1, “QUANTITATIVE LIPIDOMIC ANALYSIS, METHODS AND USES THEREOF” (McMaster University, priority 2023, published 2025).
Values joined by “and” are separate entries in the source; they are usually repeats but may differ in a detail not shown here. Equal values may be shown once. Read-outs that look alike come from different tables or passages of the source.

Assays:
[1] = Targeted plasma PC analysis by MSI-NACE-MS in placebo-controlled EPA or DHA (~3 g/day) trial over 90 days; assay type: in vivo, human; conditions: change in plasma PC 36:5 + PC 38:6 from baseline, mean ± standard deviation
Excerpt: This study was approved by the Research Ethics Board at the University of Guelph. Participant characteristics (sex, age, BMI etc.) and blood draws for O3I assessment were obtained for all participants (n=83) on study day visits. Purified EPA (KD-PUR EPA700TG) and DHA (KD-PUR DHA700TG) oils, as well as OO, were obtained from KD Pharma (Bexbach, Germany) with EPA and DHA in their triglyceride forms. […] All capsules contained 0.20% vol. tocopherol to prevent oxidation of polyunsaturated lipids. Exclusion criteria included use of FO supplements within the previous 3 months, >2 servings of fish/seafood or other omega-3 FA-rich products per week, prescribed medication use (except oral contraceptives), current smoking and history of cardiovascular disease. Participants were assigned via block randomization with stratification by sex to one of three treatment arms, namely OO supplement (n=27), EPA supplement (n=28) and DHA supplement (n=28). Participants were instructed to maintain regular exercise and dietary habits throughout the study. After overnight fasts, participants were subject to blood sampling at the Human Nutraceutical Research Unit at the University of Guelph before (baseline) and after (endpoint) of the 90-day intervention period. Blood was collected into EDTA-treated vacutainers was used to isolate plasma and erythrocytes. Samples were separated by centrifugation at 700×g at 4° C. for 15 min. […] In this case, the O3I was calculated by taking the sum of EPA and DHA relative to the sum of 15 saturated, monosaturated and polyunsaturated FAs in fasting plasma samples.
(positive ion mode) or FA 14:0[D27]

[2] = in vivo
[3] = Omega-3 index (O3I) from erythrocyte PL FAMEs by GC-FID, EPA or DHA trial; assay type: in vivo, human; conditions: for O3I (Post): 90-day period; for Average O3I status after supplementation: high-dose intake, after 90 days, both sexes
Excerpt: This study was approved by the Research Ethics Board at the University of Guelph. Participant characteristics (sex, age, BMI etc.) and blood draws for O3I assessment were obtained for all participants (n=83) on study day visits. Purified EPA (KD-PUR EPA700TG) and DHA (KD-PUR DHA700TG) oils, as well as OO, were obtained from KD Pharma (Bexbach, Germany) with EPA and DHA in their triglyceride forms. The FA content of these supplements was previously reported to be 75.7%±0.01% for oleic acid (18:1) in the OO supplement, 74.7%±0.09% EPA and 0.55%±0.01% DHA in the EPA supplement, and 72.3%±1.3% DHA and 1.05+0.11% EPA in the DHA supplement (91). All capsules contained 0.20% vol. tocopherol to prevent oxidation of polyunsaturated lipids. Exclusion criteria included use of FO supplements within the previous 3 months, >2 servings of fish/seafood or other omega-3 FA-rich products per week, prescribed medication use (except oral contraceptives), current smoking and history of cardiovascular disease. Participants were assigned via block randomization with stratification by sex to one of three treatment arms, namely OO supplement (n=27), EPA supplement (n=28) and DHA supplement (n=28). Participants were instructed to maintain regular exercise and dietary habits throughout the study. After overnight fasts, participants were subject to blood sampling at the Human Nutraceutical Research Unit at the University of Guelph before (baseline) and after (endpoint) of the 90-day intervention period. Blood was collected into EDTA-treated vacutainers was used to isolate plasma and erythrocytes. Samples were separated by centrifugation at 700×g at 4° C. for 15 min. A similar protocol was performed for FAME analysis from erythrocyte PL extracts following fractionation and saponification using GC-FID with normalization to heptadecanoic acid as internal standard (92). In this case, the O3I was calculated by taking the sum of EPA and DHA relative to the sum of 15 saturated, monosaturated and polyunsaturated FAs in fasting plasma samples.

[4] = Pooled sub-group untargeted serum lipid profiling by MSI-NACE-MS, high-dose FO supplementation vs placebo/baseline; conditions: pooled serum extracts; for Fold-change (average fold-change in ion response for serum lipid following FO supplementation to baseline): high-dose FO (EPA 3 g/day + DHA 2 g/day) vs baseline, underivatized, negative ion mode; for Change in serum lipid response following FO supplementation (in words): high-dose FO vs baseline/placebo, MSI-NACE-MS positive or negative ion mode
[5] = change from baseline, 3.0 g/day, in %
[6] = change in erythrocyte PL membrane derived O3I from baseline, females (F), mean ± standard deviation
[7] = change in erythrocyte PL membrane derived O3I from baseline, males (M), mean ± standard deviation
[8] = difference in O3I status from baseline, similar dose of EPA or DHA

For `CC/C=C\C/C=C\C/C=C\C/C=C\C/C=C\C/C=C\CCC(=O)O` [DHA, docosahexaenoic acid], the “Δ(PC 36:5 + PC 38:6)” value ([1]; females (F)) was 26.11 ± 16.15, the “Δ(PC 36:5 + PC 38:6)” value ([1]; males (M)) was 25.80 ± 20.88 and the “Change in serum lipid response following FO supplementation (in words)” value (shortened to “Change … (in words)”) [2] was “more modest increase”. The “Greater increase in O3I from baseline (relative efficacy) as compared to EPA” value ([3]; DHA vs EPA at the same dose level) was 63% and 64%, the “O3I (Post)” value ([3]; Female, 3.0 g/day) was 8.04 ± 1.34 and the “O3I (Post)” value ([3]; Male, 3.0 g/day) was 8.73 ± 0.97. It also gave a ΔO3I [3, 5] of 4.90 ± 1.33, a ΔO3I [3, 6] of 4.31 ± 1.26 and a ΔO3I [3, 7] of 5.57 ± 1.10. The ΔO3I [3, 8] was 4.90±1.33% and the “Average O3I status after supplementation” value [3] was 6.49±1.17%.
For `CC/C=C\C/C=C\C/C=C\C/C=C\C/C=C\CCCC(=O)O` [EPA, eicosapentaenoic acid], the “Δ(PC 36:5 + PC 38:6)” value ([1]; females (F)) was 33.71 ± 16.15, the “Δ(PC 36:5 + PC 38:6)” value ([1]; males (M)) was 19.30 ± 14.26 and the “O3I (Post)” value ([3]; Female, 3.0 g/day) was 6.75 ± 1.20. For the same compound, the “O3I (Post)” value ([3]; Male, 3.0 g/day) was 6.23 ± 1.10, the ΔO3I [3, 5] was 2.99 ± 1.19 and the ΔO3I [3, 6] was 3.14 ± 1.25. The ΔO3I [3, 7] was 2.83 ± 1.14, the ΔO3I [3, 8] was 2.99 ± 1.19% and the “Average O3I status after supplementation” value [3] was 8.30±1.21%. For the same compound, the “Fold-change (average fold-change in ion response for serum lipid following FO supplementation to baseline)” value (shortened to “Fold-change”) [4] was 4.16 and the “Change … (in words)” value [4] was “more modest increase”.
In the case of `CCCCCCCCCCCC(=O)O` [FA 12:0], the “Fold-change” value [4] is reported as 0.86.
With `CCCCCCCCCCCCCC(=O)O` [FA 14:0] the “Fold-change” value [4] was 0.60.
With `CCCCCCCCCCCCCCC(=O)O` [FA 15:0] the “Fold-change” value [4] was 0.85.
In the case of `CCCCCCCCCCCCCCCCC(=O)O` [FA 17:0], the “Fold-change” value [4] is reported as 0.85.
With `CCCCCCCCCCCCCCCCCC(=O)O` [FA 18:0, stearic acid] the “Fold-change” value [4] was 0.82.
For `CCCCCCCC/C=C\CCCCCCCC(=O)O` [FA 18:1, oleic acid], the “Fold-change” value [4] was 0.83.
With PE 38:5 the “Fold-change” value [4] was 0.49 and the “Change … (in words)” value [4] was “did not exhibit increases”.
With docasapentaenoic acid [FA 22:5] the “Fold-change” value [4] was 0.57 and the “Change … (in words)” value [4] was “did not respond to supplementation”.
